Test systems include 786-0 renal; CCRF-CEM leukemia; HOP-92 NSCLC; LOX IMVI melanoma; NCI-H522 lung; PC-3 prostate; SF-268 CNS; SN12C renal; SR leukemia; UACC-62 melanoma.
Experiment in all cases: NCI tumour cell line growth inhibition, 48 h

Structures are written as SMILES.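 In this assay, cells in 96-well plates receive the compound at five concentrations for 48 hours. Endpoints are linearly interpolated between the surrounding concentrations. GI50 = concentration required for 50% inhibition of growth. TGI: total growth inhibition.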

On to `C[C@]12CC[C@@H]3c4ccc(O)cc4CC[C@H]3[C@@H]1CC[C@@H]2NS(=O)(=O)c1cccc(F)c1`, for which the GI50 in the assay with 786-0 renal is 3.38 µM; with CCRF-CEM leukemia it was 3.28 µM; in the assay on HOP-92 NSCLC, 2.43 µM; in the assay on LOX IMVI melanoma, 3.09 µM; in the assay with NCI-H522 lung, 1.89 µM; in the assay with PC-3 prostate it was 2.96 µM. Also, the GI50 in the assay on SF-268 CNS was 4.1 µM; in the assay with SN12C renal, 2.35 µM; in the assay on SR leukemia, 2.35 µM; in the assay on UACC-62 melanoma, 2.92 µM. The TGI in the assay with 786-0 renal worked out at 11.3 µM; in the assay on CCRF-CEM leukemia, 18.6 µM; in the assay with HOP-92 NSCLC it was 8.64 µM; with LOX IMVI melanoma, 10.8 µM; with NCI-H522 lung it was 7.6 µM; in the assay on PC-3 prostate it was 14 µM. Further, the TGI stood at 16 µM in the assay with SF-268 CNS, 6.39 µM in the assay on SN12C renal, 8.28 µM with SR leukemia and 11.3 µM with UACC-62 melanoma.
On to `COc1ccc2ncn(-c3cc(O[C@H](C)c4ccccc4Cl)c(C(N)=O)s3)c2c1`, for which the GI50 in the assay on 786-0 renal is 0.281 µM; in the assay with CCRF-CEM leukemia it was 0.00861 µM; in the assay with HOP-92 NSCLC, 0.404 µM; in the assay on LOX IMVI melanoma it was 0.028 µM; in the assay on NCI-H522 lung it was 0.0165 µM; in the assay on PC-3 prostate, 0.0733 µM. The GI50 in the assay with SF-268 CNS is 0.0316 µM; with SN12C renal, 0.954 µM; with SR leukemia, 0.012 µM; with UACC-62 melanoma, 0.0213 µM. For the same molecule, the TGI was 8.27 µM in the assay with 786-0 renal; 6.35 µM in the assay on CCRF-CEM leukemia; 8.01 µM in the assay with HOP-92 NSCLC; 4.83 µM in the assay with LOX IMVI melanoma; 0.221 µM in the assay with NCI-H522 lung; greater than 25 µM in the assay with PC-3 prostate. Moreover, the TGI is greater than 25 µM with SF-268 CNS, greater than 25 µM with SN12C renal, 1.53 µM in the assay with SR leukemia and 3.99 µM in the assay on UACC-62 melanoma.
Turning to `Oc1cn(-c2ccc(Cl)cc2)nc1-c1n[nH]c(=S)n1C1CCCCC1`, the GI50 with 786-0 renal is 1.82 µM; in the assay on CCRF-CEM leukemia it was 0.252 µM; in the assay on HOP-92 NSCLC, 38.7 µM; with LOX IMVI melanoma it was 0.451 µM; in the assay on NCI-H522 lung, 0.373 µM; in the assay with PC-3 prostate, 11.4 µM. Besides, the GI50 in the assay on SF-268 CNS is 13.7 µM; with SN12C renal, 2.43 µM; with SR leukemia, less than 0.0413 µM. Besides, the TGI in the assay with 786-0 renal was greater than 100 µM; in the assay with CCRF-CEM leukemia, greater than 100 µM; with HOP-92 NSCLC, greater than 100 µM; with LOX IMVI melanoma, greater than 100 µM; with NCI-H522 lung, greater than 100 µM; in the assay with PC-3 prostate, greater than 66.9 µM. Besides, the TGI in the assay on SF-268 CNS, in the assay with SN12C renal, in the assay with SR leukemia and in the assay with UACC-62 melanoma was greater than 100 µM throughout.
In the case of `COCCOc1cnc2ccn([C@H](C)c3nnc4c(F)cc(-c5cnn(C)c5)cn34)c(=O)c2c1`, the GI50 is greater than 100 µM in the assay with 786-0 renal; greater than 100 µM in the assay with CCRF-CEM leukemia; 54.9 µM in the assay on HOP-92 NSCLC; greater than 100 µM in the assay with LOX IMVI melanoma; greater than 100 µM in the assay with NCI-H522 lung; greater than 100 µM in the assay with PC-3 prostate. For the same molecule, the GI50 with SF-268 CNS was greater than 100 µM; in the assay on SN12C renal it was greater than 100 µM; in the assay with SR leukemia, greater than 100 µM; in the assay on UACC-62 melanoma it was 56.4 µM. The TGI with 786-0 renal, with CCRF-CEM leukemia, in the assay on HOP-92 NSCLC, with LOX IMVI melanoma, in the assay with NCI-H522 lung and in the assay with PC-3 prostate was greater than 100 µM throughout. The TGI in the assay on SF-268 CNS, in the assay with SN12C renal, with SR leukemia and in the assay on UACC-62 melanoma was greater than 100 µM in each case.
Regarding `COc1cc2ncn(-c3cc(OCCc4ccccc4)c(C(N)=O)s3)c2cc1OC`, the GI50 in the assay with 786-0 renal is greater than 25 µM; in the assay on CCRF-CEM leukemia, 8.5 µM; in the assay on HOP-92 NSCLC, 19.6 µM; in the assay with LOX IMVI melanoma, greater than 25 µM; in the assay on NCI-H522 lung it was greater than 18.1 µM; in the assay with PC-3 prostate, greater than 25 µM. The GI50 in the assay on SF-268 CNS is greater than 25 µM; in the assay with SN12C renal, 24.9 µM; in the assay on SR leukemia, 13.6 µM; in the assay on UACC-62 melanoma it was greater than 25 µM. Also, the TGI in the assay with 786-0 renal, in the assay with CCRF-CEM leukemia, with HOP-92 NSCLC, with LOX IMVI melanoma, with NCI-H522 lung and in the assay with PC-3 prostate was greater than 25 µM in each case. In addition, the TGI in the assay with SF-268 CNS, in the assay on SN12C renal, in the assay with SR leukemia and with UACC-62 melanoma was greater than 25 µM throughout.
Take `CCOC(=O)CNC(=O)c1ccccc1Nc1ccnc(C(F)(F)F)c1`: the GI50 is 52.6 µM with 786-0 renal; 7.97 µM with CCRF-CEM leukemia; 0.0572 µM in the assay with HOP-92 NSCLC; 17.5 µM in the assay on LOX IMVI melanoma; 27.8 µM with NCI-H522 lung; 25.4 µM in the assay on PC-3 prostate. Further, the GI50 in the assay with SF-268 CNS is 35.7 µM; with SN12C renal, 36.6 µM; in the assay with SR leukemia it was 19 µM; with UACC-62 melanoma, 22.4 µM. Moreover, the TGI with 786-0 renal is greater than 90 µM; with CCRF-CEM leukemia it was greater than 37.9 µM; in the assay with HOP-92 NSCLC, 7.62 µM; with LOX IMVI melanoma, 36.2 µM; in the assay with NCI-H522 lung, greater than 70.5 µM; in the assay with PC-3 prostate, greater than 95.5 µM. Also, the TGI in the assay on SF-268 CNS is greater than 71.6 µM; with SN12C renal, greater than 79.4 µM; in the assay with SR leukemia it was 57.8 µM; in the assay on UACC-62 melanoma it was greater than 61.2 µM.
On to `COc1ccc2c(c1)C(C)Cc1c(ncnc1-n1c(C)nc3ccccc31)N2C` (centres undefined), for which the GI50 with 786-0 renal was 5.83 µM; in the assay on CCRF-CEM leukemia, 2.85 µM; in the assay with HOP-92 NSCLC, 3.34 µM; with LOX IMVI melanoma, 4.42 µM; in the assay on NCI-H522 lung, 1.96 µM; in the assay on PC-3 prostate, 3.25 µM. Moreover, the GI50 is 11.5 µM in the assay with SF-268 CNS, 13 µM with SN12C renal, 0.345 µM with SR leukemia and 4.83 µM in the assay on UACC-62 melanoma. In addition, the TGI in the assay with 786-0 renal was 29.2 µM; in the assay on CCRF-CEM leukemia it was 16.4 µM; with HOP-92 NSCLC, 17.4 µM; with LOX IMVI melanoma, 23.9 µM; in the assay with NCI-H522 lung it was 5.38 µM; in the assay with PC-3 prostate it was 27.3 µM. Also, the TGI stood at 39.7 µM in the assay with SF-268 CNS, 77.6 µM in the assay with SN12C renal, 5.54 µM with SR leukemia and 22.3 µM in the assay with UACC-62 melanoma.
